Data: patent publication US8999326B2, “Oncotherapeutic application of inhibitors of high-affinity glucose transporters” (University of South Florida, priority 2007, dated 2015)

System: H1299, H1650 and MCF-7 cells
Assay: BrdU proliferation assay, statements for all three cell lines
Assay type: cell-based, human
Conditions: 5 μM cisplatin, 5 μM paclitaxel or 10 μM gefitinib
Method: FIGS. 5A-5C show the combined effect of chemotherapeutic drugs and Glut-1 antibody on cell proliferation. H1299 (FIG. 5A), H1650 (FIG. 5B), and MCF-7 (FIG. 5C) cells were grown on chamber slides as described above and treated either with cisplatin, paclitaxel or iressa in presence or absence of Glut-1 antibody (0.1 mg) for 18 hours. The proliferation was measured by BrdU incorporation.
MCF-7, H1299 and H1650 cells were plated onto poly-D-lysine (Sigma) coated 8-well glass chamber slides (10,000 cells per well). The cells were incubated with 0.1 mg/ml Glut-1 monoclonal antibody for 18 hours. The cells were fixed and stained using 5-Bromo-2′ deoxyuridine labeling and detection kit from ROCHE according to manufacturer's protocol.
Experiments were done to evaluate whether anti-Glut-1 antibody could synergize with standard chemotherapeutic agents to inhibit proliferation of H1299, H1650 and MCF-7. The cells were plated on chamber slides and incubated in presence of chemotherapeutic agents (5 μM cisplatin, 5 μM paclitaxel or 10 μM geftinib) in absence or presence of 0.1 mg/ml anti-Glut-1 antibody.

SMILES	effect of drug alone on proliferation
N.N.[Cl][Pt][Cl] [cisplatin]	significant decrease in proliferation
COc1cc2ncnc(Nc3ccc(F)c(Cl)c3)c2cc1OCCCN1CCOCC1 [gefitinib]	significant decrease in proliferation
CC(=O)O[C@H]1C(=O)[C@@]2(C)[C@H]([C@H](OC(=O)c3ccccc3)[C@]3(O)C[C@H](OC(=O)[C@H](O)[C@@H](NC(=O)c4ccccc4)c4ccccc4)C(C)=C1C3(C)C)[C@]1(OC(C)=O)CO[C@@H]1C[C@@H]2O [paclitaxel]	significant decrease in proliferation
